# From patent publication US8598374B2, “GPR120 receptor agonists and uses thereof” (Metabolex, Inc, priority 2008, dated 2013)
# Molecular target: T1, human GPR120 (Homo sapiens, UniProt Q5NUL3)
# T1 construct: Flag (DYKDDDDK) (N); host or cells: HEK293 cells co-expressing Gqi5
# T1 sequence (Q5NUL3 1-361): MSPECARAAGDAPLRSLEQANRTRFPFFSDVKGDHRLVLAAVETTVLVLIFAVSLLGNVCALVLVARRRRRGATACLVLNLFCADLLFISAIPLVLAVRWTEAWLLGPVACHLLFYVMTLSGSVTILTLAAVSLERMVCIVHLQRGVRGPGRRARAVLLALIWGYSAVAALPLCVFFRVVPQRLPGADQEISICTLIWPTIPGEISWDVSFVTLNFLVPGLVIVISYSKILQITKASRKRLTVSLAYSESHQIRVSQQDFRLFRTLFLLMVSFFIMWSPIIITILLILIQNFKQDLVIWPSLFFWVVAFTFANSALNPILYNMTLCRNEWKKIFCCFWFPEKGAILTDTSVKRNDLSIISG
# Test: Intracellular Ca2+ assay (FLIPR Calcium 4, Flexstation) in human GPR120 stable cell line
# Type: cell-based
# Details: for % Activity (Ex. 25 Reference Compound): % activity at 2.5 μM compared to the maximal activity of the compound of Example 25 at 2.5 μM, HEK293 cells co-expressing Gqi5; for EC50: human GPR120 stably expressing cells, eight concentrations from 0.00001 to 20 μM
# Experimental: Human GPR120 stable cell line was purchased from Multispan Inc (26219 Eden Landing Road, Hayward, Calif. 94545). This GPR120 cell line was generated in HEK293 cells co-expressing Gqi5. In this cell line, the Flag epitope tag (DYKDDDDK) was fused to the amino terminus of human GPR120 protein.
# The concentration of intracellular Ca^2+ was measured as described below. Human GPR120 cells were plated in 96 well plates (Poly-D-Lysine coated black/clear Plate, Greiner Bio-One) at 70,000 cells per well and cultured overnight in conditions of 37° C. and 5% CO2. A Ca^2+ assay dye stock solution was prepared by adding 10 mL of assay buffer (HBSS/20 mM HEPES, pH 7.4) to FLIPR Calcium 4 Assay Bulk Kit (Molecular Devices). The 10 mL of Ca^2+ assay dye solution was prepared by further diluting 0.5 mL of Ca^2+ assay dye stock solution with 10 mL of assay buffer. The medium of the cells was removed and immediately 100 μL of the Ca^2+ assay dye solution was dispensed into each well followed by incubation at 37° C. and 5% CO2 for 50 minutes to incorporate the Ca^2+ dye into the cells. The cell plate was then placed in the Flexstation (Molecular Devices) for 20 minutes at 37° C. Compounds were dissolved in 100% DMSO and diluted to desired concentrations with assay buffer and placed in the Flexstation simultaneously with the cell plate for 20 minute incubation at 37° C. prior to reading. Fluorescence intensity was measured immediately following compound addition (25 μL/well) on the Flexstation at an excitation wavelength of 485 nm and an emission wavelength of 525 with 515 nm auto cutoff. The resulting increase in fluorescence intensities corresponds to increases in intracellular Ca^2+ levels.
# Compounds were dissolved in 100% DMSO to a concentration of 20 mM to provide stock solutions. To determine activity against human GPR120, compounds were added with human GPR120 stably expressing cells (described above), at eight desired concentrations ranging from 0.00001 to 20 μM, in 96 well plates and fluorescence intensities were measured for 90 seconds with 2-second intervals. An EC50 value (concentration of the GPR120 agonist where 50% of the agonist's maximal activity is observed) was calculated using the changes (Max-Min) of fluorescence intensity.
# To determine percent activity for a tested compound, the fluorescence intensity value obtained at a particular concentration were compared to the maximal fluorescence intensity value obtained for reference compound GW9508 (4-[[(3-phenoxyphenyl)methyl]amino]benzene propanoic acid; British Journal of Pharmacology 2006 148, 619-628) or the compound of Example 25. When GW9508 was used as the reference compound, the maximal activity of GW9508 at 6.7 μM was designated as 100% activity. When the compound of Example 25 was used as the reference compound, the maximal activity of the compound of Example 25 at 2.5 μM was designated as 100% activity. Typically, the GW9508 activity reached a maximum at a concentration of approximately 6.7 μM and typically the compound of Example 25 reached a maximum activity at approximately 2.5 μM.
SMILES,% Activity (Ex. 25 Reference Compound) [%],EC50 [µM],"concentration at which activity reached a maximum (typical value, reference compound)"
"Cc1cc2cccc(COc3c(F)cc(CC(C)C(=O)O)cc3F)c2s1 (stereo not drawn) [Example 151, 3-(3,5-difluoro-4-((2-methylbenzo[b]thiophen-7-yl)methoxy)phenyl)-2-methylpropanoic acid]",117.38,,
"CCc1cc(OCc2cc(F)cc3c2OC(C)(C)C3)ccc1/C=C/C(=O)O [Example 60, (E)-3-(2-ethyl-4-((5-fluoro-2,2-dimethyl-2,3-dihydrobenzofuran-7-yl)methoxy)phenyl)acrylic acid]",,1 to 10,
"COc1cc(OCc2cc(Cl)cc3c2OC(C)(C)C3)ccc1CCC(=O)O [Example 55, 3-(4-((5-chloro-2,2-dimethyl-2,3-dihydrobenzofuran-7-yl)methoxy)-2-methoxyphenyl)propanoic acid]",,1 to 10,
"CC1(C)Cc2cc(F)cc(COc3ccc4c(CC(=O)O)cc(=O)oc4c3)c2O1 [Example 263, 2-(7-((5-fluoro-2,2-dimethyl-2,3-dihydrobenzofuran-7-yl)methoxy)-2-oxo-2H-chromen-4-yl)acetic acid]",5.98,,
"CC1(C)Cc2cc(F)cc(COc3ccc4c(CC(=O)O)coc4c3)c2O1 [Example 262, 2-(6-((5-fluoro-2,2-dimethyl-2,3-dihydrobenzofuran-7-yl)methoxy)benzofuran-3-yl)acetic acid]",137.39,,
"CCOC(Cc1cc(F)c(OCc2cc(F)cc3c2OC(C)(C)C3)c(F)c1)C(=O)O (stereo not drawn) [Example 69, 3-(3,5-difluoro-4-((5-fluoro-2,2-dimethyl-2,3-dihydrobenzofuran-7-yl)methoxy)phenyl)-2-ethoxypropanoic acid]",78.46,,
"CC1(C)Cc2cc(Cl)cc(COc3c(F)cc(C4CC4CC(=O)O)cc3F)c2O1 (stereo not drawn) [Example 41, 2-(2-(4-((5-chloro-2,2-dimethyl-2,3-dihydrobenzofuran-7-yl)methoxy)-3,5-difluorophenyl)cyclopropyl)acetic acid]",116.46,,
"CC1(C)Cc2cc(F)cc(COc3ccc(C4CC4C(=O)O)cc3)c2O1 (single isomer, unassigned) [Example 131B, 2-(4-((5-fluoro-2,2-dimethyl-2,3-dihydrobenzofuran-7-yl)methoxy)phenyl)cyclopropanecarboxylic acid]",105.8,,
"CC1(C)Cc2cccc(COc3c(F)cc(CCC(=O)O)cc3F)c2O1 [Example 25, 3-(4-((2,2-dimethyl-2,3-dihydrobenzofuran-7-yl)methoxy)-3,5-difluorophenyl)propanoic acid]",,,approximately 2.5 μM
"[2H]C([2H])(C(=O)O)C([2H])([2H])c1ccc(OCc2cc(Cl)cc3c2OC(C)(C)C3)c(F)c1 [Example 241, 3-(4-((5-chloro-2,2-dimethyl-2,3-dihydrobenzofuran-7-yl)methoxy)-3-fluorophenyl)-2,2,3,3-tetradeuteriopropanoic acid]",159.62,,
"CC(CC(=O)O)Cc1ccc(OCc2cc(F)cc3c2OC(C)(C)C3)cc1 (stereo not drawn) [Example 182, 4-(4-((5-fluoro-2,2-dimethyl-2,3-dihydrobenzofuran-7-yl)methoxy)phenyl)-3-methylbutanoic acid]",98.43,,
"C[C@H](Cc1ccc(OCc2cc(Cl)cc3c2OC(C)(C)C3)c(C(F)(F)F)c1)C(=O)O [Example 143, (R)-3-(4-((5-chloro-2,2-dimethyl-2,3-dihydrobenzofuran-7-yl)methoxy)-3-(trifluoromethyl)phenyl)-2-methylpropanoic acid]",90.56,,
"C[C@H](Cc1ccc(OCc2cc(F)cc3c2OC(C)(C)C3)cc1)C(=O)O [Example 65, (R)-3-(4-((5-fluoro-2,2-dimethyl-2,3-dihydrobenzofuran-7-yl)methoxy)phenyl)-2-methylpropanoic acid]",141.04,1 to 10,
"CC1(C)Cc2cc(F)cc(COc3ccc(CCC(=O)O)c(F)c3)c2O1 [Example 48, 3-(2-fluoro-4-((5-fluoro-2,2-dimethyl-2,3-dihydrobenzofuran-7-yl)methoxy)phenyl)propanoic acid]",,1 to 10,
"Cc1c(CCC(=O)O)ccc(OCc2cc(F)cc3c2OC(C)(C)C3)c1C [Example 208, 3-(4-((5-fluoro-2,2-dimethyl-2,3-dihydrobenzofuran-7-yl)methoxy)-2,3-dimethylphenyl)propanoic acid]",147.47,,
"CC1(C)Cc2cc(F)cc(COc3ccc(CCC(=O)O)c(C(F)(F)F)c3)c2O1 [Example 61, 3-(4-((5-fluoro-2,2-dimethyl-2,3-dihydrobenzofuran-7-yl)methoxy)-2-(trifluoromethyl)phenyl)propanoic acid]",,1 to 10,
"CC(Cc1ccc(OCc2cc(Cl)cc3c2OC2(CCCC2)C3)cc1)C(=O)O (stereo not drawn) [Example 159, 3-(4-((5-chloro-3H-spiro[benzofuran-2,1′-cyclopentane]-7-yl)methoxy)phenyl)-2-methylpropanoic acid]",164.79,,
"CC(Cc1cc(F)c(OCc2cc(OCc3ccccc3)cc3c2OC(C)(C)C3)c(F)c1)C(=O)O (stereo not drawn) [Example 111, 3-(4-((5-(benzyloxy)-2,2-dimethyl-2,3-dihydrobenzofuran-7-yl)methoxy)-3,5-difluorophenyl)-2-methylpropanoic acid]",51.55,,
"COc1cc(OCc2cc(F)cc3c2OC(C)(C)C3)ccc1CCC(=O)O [Example 50, 3-(4-((5-fluoro-2,2-dimethyl-2,3-dihydrobenzofuran-7-yl)methoxy)-2-methoxyphenyl)propanoic acid]",129.78,1 to 10,
"CC(Cc1ccc(OCc2cc(Cl)cc3c2OCC3(C)C)cc1)C(=O)O (stereo not drawn) [Example 148, 3-(4-((5-chloro-3,3-dimethyl-2,3-dihydrobenzofuran-7-yl)methoxy)phenyl)-2-methylpropanoic acid]",113.89,,
"Cc1cc(OCc2cc(F)cc3c2OC(C)(C)C3)c(F)cc1CCC(=O)O [Example 214, 3-(5-fluoro-4-((5-fluoro-2,2-dimethyl-2,3-dihydrobenzofuran-7-yl)methoxy)-2-methylphenyl)propanoic acid]",143.21,,
"CC1(C)Cc2c(C(F)(F)F)ccc(COc3c(F)cc(C4CC4C(=O)O)cc3F)c2O1 (stereo not drawn) [Example 31, 2-(4-((2,2-dimethyl-4-(trifluoromethyl)-2,3-dihydrobenzofuran-7-yl)methoxy)-3,5-difluorophenyl)cyclopropanecarboxylic acid]",,1 to 10,
"[2H]C1([2H])c2cc(Cl)cc(COc3ccc(CC(C)C(=O)O)cc3C(F)(F)F)c2OC1(C)C (stereo not drawn) [Example 147, 3-(4-((3,3-dideuterio-5-chloro-2,2-dimethyl-2,3-dihydrobenzofuran-7-yl)methoxy)-3-(trifluoromethyl)phenyl)-2-methylpropanoic acid]",138.65,,
"CC(Cc1ccc(OCc2cc(-c3ccc(Cl)cc3)cc3c2OC(C)(C)C3)cc1)C(=O)O (stereo not drawn) [Example 82, 3-(4-((5-(4-chlorophenyl)-2,2-dimethyl-2,3-dihydrobenzofuran-7-yl)methoxy)phenyl)-2-methylpropanoic acid]",24,,
"CC1(C)Cc2cc(F)cc(COc3ccc4cc(C(=O)O)ccc4c3)c2O1 [Example 114, 6-((5-fluoro-2,2-dimethyl-2,3-dihydrobenzofuran-7-yl)methoxy)-2-naphthoic acid]",123.58,,
